# In article PMC12472322, “Structure–Activity Relationship Study of 3-Alkynyl-6-aryl-isothiazolo[4,3-b]pyridines as Dual Inhibitors of the Lipid Kinases PIKfyve and PIP4K2C” (Pharmaceuticals, 2025):
# Like-named read-outs stand apart in the source and are kept apart here.
# Assays:
# HL-60 = test: cell proliferation assay (MTS, 72 h); settings: Homo sapiens, HL-60, 72 h, read-out: CC50 HL-60
# HCT-116 = test: cell proliferation assay (MTS, 72 h); settings: Homo sapiens, HCT-116, 72 h, read-out: CC50 HCT-116
# Z-138 = test: cell proliferation assay (MTS, 72 h); settings: Homo sapiens, Z-138, 72 h, read-out: CC50 Z-138
# LN-229 = test: cell proliferation assay (MTS, 72 h); settings: Homo sapiens, LN-229, 72 h, read-out: CC50 LN-229
# Capan-1 = test: cell proliferation assay (MTS, 72 h); settings: Homo sapiens, CAPAN-1, 72 h, read-out: CC50 Capan-1
# PIKfyve = molecular target: T1, PIKfyve (Homo sapiens, UniProt Q9Y2I7); test: biochemical PIKfyve mobility shift assay (Nanosyn)
# T1 construct: purchased Nanosyn, Santa Clara, CA, USA (contract assay service)
# K-562 = test: cell proliferation assay (MTS, 72 h); settings: Homo sapiens, K562, 72 h, read-out: CC50 K-562
# DND-41 = test: cell proliferation assay (MTS, 72 h); settings: DND41, 72 h, read-out: CC50 DND-41
# NCI-H460 = test: cell proliferation assay (MTS, 72 h); settings: Homo sapiens, NCI-H460, 72 h, read-out: CC50 NCI-H460
# SARS-CoV-2 = test: microbe, parasite or virus in culture; type: cell-based, severe acute respiratory syndrome coronavirus 2; settings: for EC50: Severe acute respiratory syndrome coronavirus 2, VeroE6/TMPRSS2, 24 h, read-out: SARS-CoV2 EC50
# [1] = cell viability (AlamarBlue) in SARS-CoV-2-infected Vero E6/TMPRSS2 cells; type: cell-based; settings: African green monkey, Vero E6/TMPRSS2 cells infected with SARS-CoV-2, half-maximal cytotoxic concentration, read-out: SARS-CoV2 CC50
# U-87 MG cells = settings: half-maximal cytotoxic concentration
# PIP4K2C [2] = molecular target: T2, PIP4K2C (Homo sapiens, UniProt Q8TBX8); test: PIP4K2C binding assay (DiscoverX/Kinome platform)
# T2 sequence (Q8TBX8 1-421): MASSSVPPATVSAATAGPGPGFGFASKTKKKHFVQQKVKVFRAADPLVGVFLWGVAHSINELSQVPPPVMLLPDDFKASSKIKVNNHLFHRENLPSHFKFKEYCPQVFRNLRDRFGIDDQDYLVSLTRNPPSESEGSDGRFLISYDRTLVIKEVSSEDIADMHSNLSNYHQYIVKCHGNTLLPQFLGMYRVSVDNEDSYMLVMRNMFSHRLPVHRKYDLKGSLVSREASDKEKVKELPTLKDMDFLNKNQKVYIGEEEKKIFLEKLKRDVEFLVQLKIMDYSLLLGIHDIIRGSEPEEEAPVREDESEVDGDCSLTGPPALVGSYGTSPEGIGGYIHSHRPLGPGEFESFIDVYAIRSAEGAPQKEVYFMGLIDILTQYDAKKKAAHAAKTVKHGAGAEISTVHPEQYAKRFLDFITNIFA
# VEEV (TC-83) = test: microbe, parasite or virus in culture; type: cell-based; settings: Venezuelan equine encephalitis virus, U-87 MG, 18 h, read-out: VEEV (TC-83) EC50
# PIP4K2C [3] = molecular target: T2, PIP4K2C; settings: cited from earlier work
# [4] = test system: non-Hodgkin lymphoma (NHL) B-cell lines; settings: large panel of NHL B-cell lines; read-out: antiproliferative IC50; cited from earlier work
# [5] = test system: subcutaneous Burkitt lymphoma xenografts; settings: oral administration, mice; cited from earlier work
# T1 sequence (Q9Y2I7 whole entry): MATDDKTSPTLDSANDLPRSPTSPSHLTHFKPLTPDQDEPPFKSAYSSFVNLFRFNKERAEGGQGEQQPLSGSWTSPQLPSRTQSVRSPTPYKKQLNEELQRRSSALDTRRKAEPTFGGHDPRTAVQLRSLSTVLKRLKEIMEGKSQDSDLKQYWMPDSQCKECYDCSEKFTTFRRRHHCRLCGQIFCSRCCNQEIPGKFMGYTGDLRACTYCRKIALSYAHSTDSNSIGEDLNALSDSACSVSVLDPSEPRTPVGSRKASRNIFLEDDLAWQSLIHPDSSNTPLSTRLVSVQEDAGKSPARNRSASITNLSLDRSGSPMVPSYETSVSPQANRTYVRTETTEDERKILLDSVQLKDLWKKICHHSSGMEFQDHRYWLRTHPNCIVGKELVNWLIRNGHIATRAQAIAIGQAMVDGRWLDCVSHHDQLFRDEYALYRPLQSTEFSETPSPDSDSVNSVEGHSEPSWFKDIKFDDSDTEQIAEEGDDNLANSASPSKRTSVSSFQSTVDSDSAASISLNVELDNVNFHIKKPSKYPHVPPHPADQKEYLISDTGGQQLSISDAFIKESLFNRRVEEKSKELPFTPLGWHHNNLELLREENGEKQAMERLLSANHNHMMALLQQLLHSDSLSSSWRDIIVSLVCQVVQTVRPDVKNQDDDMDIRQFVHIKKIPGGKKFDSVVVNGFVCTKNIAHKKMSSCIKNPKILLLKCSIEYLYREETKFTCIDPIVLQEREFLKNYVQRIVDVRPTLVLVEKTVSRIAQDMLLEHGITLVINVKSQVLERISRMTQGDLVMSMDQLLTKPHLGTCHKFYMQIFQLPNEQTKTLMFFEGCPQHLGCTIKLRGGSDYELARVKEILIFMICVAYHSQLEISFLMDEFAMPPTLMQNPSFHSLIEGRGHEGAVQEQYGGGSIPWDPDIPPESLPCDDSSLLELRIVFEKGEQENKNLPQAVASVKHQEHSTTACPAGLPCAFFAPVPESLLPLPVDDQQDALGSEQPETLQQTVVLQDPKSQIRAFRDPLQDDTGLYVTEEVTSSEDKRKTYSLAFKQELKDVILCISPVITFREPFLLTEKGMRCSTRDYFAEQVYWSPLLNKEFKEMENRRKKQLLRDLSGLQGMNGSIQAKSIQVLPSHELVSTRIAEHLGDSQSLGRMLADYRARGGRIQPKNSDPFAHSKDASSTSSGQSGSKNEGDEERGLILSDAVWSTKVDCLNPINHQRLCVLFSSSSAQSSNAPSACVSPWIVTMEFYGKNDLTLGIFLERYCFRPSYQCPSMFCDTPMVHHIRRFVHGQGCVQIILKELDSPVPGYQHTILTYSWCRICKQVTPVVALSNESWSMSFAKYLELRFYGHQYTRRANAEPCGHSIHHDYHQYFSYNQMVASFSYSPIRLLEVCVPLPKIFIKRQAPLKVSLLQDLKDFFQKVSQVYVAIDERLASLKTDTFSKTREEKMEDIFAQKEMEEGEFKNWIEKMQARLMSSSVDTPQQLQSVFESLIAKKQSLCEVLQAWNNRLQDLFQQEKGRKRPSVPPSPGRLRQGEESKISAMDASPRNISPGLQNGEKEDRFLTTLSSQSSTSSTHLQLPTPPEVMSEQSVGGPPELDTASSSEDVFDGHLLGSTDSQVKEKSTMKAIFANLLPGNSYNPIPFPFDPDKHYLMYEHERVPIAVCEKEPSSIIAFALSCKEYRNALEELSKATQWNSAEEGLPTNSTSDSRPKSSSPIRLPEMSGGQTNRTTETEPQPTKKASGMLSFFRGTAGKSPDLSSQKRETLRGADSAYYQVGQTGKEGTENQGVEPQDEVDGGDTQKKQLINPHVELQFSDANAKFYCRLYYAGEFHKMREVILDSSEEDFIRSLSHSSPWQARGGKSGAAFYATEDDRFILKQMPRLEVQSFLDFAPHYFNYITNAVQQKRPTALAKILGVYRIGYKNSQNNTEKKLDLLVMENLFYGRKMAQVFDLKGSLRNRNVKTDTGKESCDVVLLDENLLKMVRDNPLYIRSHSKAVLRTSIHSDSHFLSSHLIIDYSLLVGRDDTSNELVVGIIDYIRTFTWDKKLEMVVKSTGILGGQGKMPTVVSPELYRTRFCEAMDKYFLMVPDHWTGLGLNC
SMILES,CC50 (HL-60),CC50 (HCT-116),CC50 (Z-138),CC50 (LN-229),CC50 (Capan-1),IC50 (PIKfyve; Tables 1-4 and text),CC50 (K-562),CC50 (DND-41),CC50 (NCI-H460),EC50 (SARS-CoV-2),IC50 (PIKfyve; Table 5 column),CC50 [1],VEEV (TC-83) CC50 (U-87 MG cells),Kd (PIP4K2C [2]),EC50 (VEEV (TC-83)),further results
"Fc1ccc(-c2cnc3c(C#Cc4cccnc4)snc3c2)cc1 [Compound 3g, 6-(4-Fluorophenyl)-3-(pyridin-3-ylethynyl)isothiazolo[4,3-b]pyridine]",1510 ± 710 nM,810 ± 160 nM,1030 ± 200 nM,4390 ± 940 nM,730 ± 230 nM,10 nM,5180 ± 480 nM,3060 ± 1710 nM,1460 ± 360 nM,–,–,–,–,–,–,–
"NC(=O)c1ccc(-c2cnc3c(C#Cc4cccnc4)snc3c2)cc1 [Compound 3m, 4-(3-(Pyridin-3-ylethynyl)isothiazolo[4,3-b]pyridin-6-yl)benzamide]",1000 ± 570 nM,340 ± 780 nM,960 ± 300 nM,3230 ± 780 nM,2410 ± 940 nM,1.6 nM,6530 ± 460 nM,2250 ± 190 nM,2900 ± 1720 nM,1820 ± 940 nM,1.6 nM,> 20000 nM,>20000 nM,41 nM,190 ± 1 nM,–
"COc1cc(-c2cnc3c(C#Cc4cccnc4)snc3c2)ccc1N [Compound 3f, 2-Methoxy-4-(3-(pyridin-3-ylethynyl)isothiazolo[4,3-b]pyridin-6-yl)aniline]",–,–,–,–,–,2.8 nM,–,–,–,2740 ± 40 nM,2.8 nM,> 20000 nM,>20000 nM,44 nM,260 ± 80 nM,–
"Ic1cccc(/C=N/Nc2nc(N3CCOCC3)nc(N(c3ccccc3)c3ccccc3)n2)c1 [Vacuolin-1, reference compound]",26400 ± 1480 nM,1870 ± 750 nM,16600 ± 1310 nM,6350 ± 1800 nM,900 ± 130 nM,–,17200 ± 3080 nM,24100 ± 1210 nM,1460 ± 160 nM,–,–,–,–,–,–,–
"COc1ccc(-c2cnc3c(C#Cc4cccnc4)snc3c2)cc1OC [Compound 21, 6-(3,4-dimethoxyphenyl)-3-(pyridin-3-ylethynyl)isothiazolo[4,3-b]pyridine]",1470 ± 450 nM,820 ± 370 nM,770 ± 60 nM,1620 ± 500 nM,810 ± 110 nM,–,4240 ± 110 nM,1750 ± 1020 nM,2520 ± 1090 nM,–,–,> 20000 nM,>10000 nM,–,750 ± 20 nM,Kd (PIP4K2C [3]): 46 nM
"COc1ccccc1-c1cnc2c(C#Cc3cccnc3)snc2c1 [Compound 3b, 6-(2-Methoxyphenyl)-3-(pyridin-3-ylethynyl)isothiazolo[4,3-b]pyridine]",1480 ± 1130 nM,1020 ± 1240 nM,1810 ± 690 nM,3280 ± 1240 nM,1020 ± 90 nM,6.8 nM,5270 ± 590 nM,3920 ± 720 nM,2970 ± 750 nM,–,–,–,–,–,–,–
"COCCNC(=O)c1cccc(-c2cnc3c(C#Cc4cccnc4)snc3c2)c1 [Compound 3s, N-(2-Methoxyethyl)-3-(3-(pyridin-3-ylethynyl)isothiazolo[4,3-b]pyridin-6-yl)benzamide]",–,–,–,–,–,1.9 nM,–,–,–,5650 ± 1490 nM,1.9 nM,> 20000 nM,>10000 nM,30 nM,400 ± 80 nM,–
"COc1cc(-c2cnc3c(C#Cc4cccnc4)snc3c2)ccc1C(=O)O [Compound 4, 2-Methoxy-4-(3-(pyridin-3-ylethynyl)isothiazolo[4,3-b]pyridin-6-yl)benzoic acid]",–,–,–,–,–,49 nM,–,–,–,360 ± 190 nM,49 nM,> 20000 nM,>10000 nM,68 nM,8700 ± 1700 nM,–
"COc1ccc(-c2cnc3c(C#Cc4ccccc4F)snc3c2)cc1OC [Compound 7e, 6-(3,4-Dimethoxyphenyl)-3-((2-fluorophenyl)ethynyl)isothiazolo[4,3-b]pyridine]",–,–,–,–,–,62 nM,–,–,–,550 ± 150 nM,62 nM,15700 ± 1340 nM,>20000 nM,280 nM,16800 ± 1250 nM,–
"COc1ccc(-c2cnc3c(C#Cc4cncc(C)c4)snc3c2)cc1OC [Compound 7i, 6-(3,4-Dimethoxyphenyl)-3-((5-methylpyridin-3-yl)ethynyl)isothiazolo[4,3-b]pyridine]",> 100000 nM,≥ 74000 nM,70200 ± 2550 nM,> 100000 nM,14600 ± 2970 nM,2 nM,> 100000 nM,> 100000 nM,> 100000 nM,–,–,–,–,–,–,IC50 (PIKfyve; values given in text in nM): 2 nM
"COc1ccc(-c2cnc3c(C#Cc4cncc(F)c4)snc3c2)cc1OC [Compound 7r, 6-(3,4-Dimethoxyphenyl)-3-((5-fluoropyridin-3-yl)ethynyl)isothiazolo[4,3-b]pyridine]",–,–,–,–,–,98 nM,–,–,–,1920 ± 520 nM,98 nM,> 20000 nM,>10000 nM,110 nM,1850 ± 120 nM,–
"FC(F)(F)c1ccccc1-c1nc(NCc2cccs2)c2ccccc2n1 [NIH-12848, reference compound]",–,–,–,–,–,–,–,–,–,–,–,–,–,–,–,Kd (PIP4K2C [3]): 2800 nM
"Cc1cccc(/C=N/Nc2cc(N3CCOCC3)nc(OCCc3ccccn3)n2)c1 [Apilimod, reference compound]",170 ± 20 nM,< 20 nM,60 nM,80 ± 90 nM,< 20 nM,–,330 ± 340 nM,80 ± 20 nM,< 20 nM,190 nM,–,18400 ± 420 nM,>10000 nM,–,1350 ± 490 nM,IC50 [4]: < 200 nM; growth of subcutaneous Burkitt lymphoma xenografts [5]: inhibits the growth
"COc1cccc(-c2cnc3c(C#Cc4cccnc4)snc3c2)c1 [Compound 3a, 6-(3-Methoxyphenyl)-3-(pyridin-3-ylethynyl)isothiazolo[4,3-b]pyridine]",–,–,–,–,–,6.8 nM,–,–,–,–,6.8 nM,< 10000 nM,>10000 nM,190 nM,6880 ± 330 nM,–
"COc1ccc(-c2cnc3c(C#Cc4cnc5ccccc5c4)snc3c2)cc1OC [Compound 7w, 6-(3,4-Dimethoxyphenyl)-3-(quinolin-3-ylethynyl)isothiazolo[4,3-b]pyridine]",–,–,–,–,–,5690 nM,–,–,–,–,5690 nM,< 10000 nM,>10000 nM,2000 nM,2080 ± 100 nM,"SARS-CoV-2 screening, result in words (SARS-CoV-2; Vero E6/TMPRSS2 cells): only cytotoxicity was observed; fold less potent on PIKfyve relative to RMC-113 (PIKfyve; ratio of IC50 values): 700 fold"
"COc1cncc(C#Cc2snc3cc(-c4ccc(OC)c(OC)c4)cnc23)c1 [Compound 7l, 6-(3,4-Dimethoxyphenyl)-3-((5-methoxypyridin-3-yl)ethynyl)isothiazolo[4,3-b]pyridine]",1800 nM,2450 ± 850 nM,1850 ± 70 nM,5150 ± 2050 nM,1790 ± 1200 nM,3.3 nM,5700 ± 1270 nM,5250 ± 640 nM,5380 ± 560 nM,4920 ± 930 nM,3.3 nM,> 20000 nM,>10000 nM,39 nM,1640 ± 50 nM,fold more potent on PIKfyve than 7o (PIKfyve; ratio of IC50 values): 6 fold; fold more potent on PIKfyve than 7h (PIKfyve; ratio of IC50 values): 200 fold; IC50 (PIKfyve; values given in text in nM): 3 nM
"COc1ccc(-c2cnc3c(C#Cc4cnccc4C)snc3c2)cc1OC [Compound 7p, 6-(3,4-Dimethoxyphenyl)-3-((4-methylpyridin-3-yl)ethynyl)isothiazolo[4,3-b]pyridine]",> 100000 nM,> 100000 nM,12300 ± 1770 nM,> 100000 nM,> 100000 nM,33 nM,> 100000 nM,> 100000 nM,> 100000 nM,830 ± 60 nM,–,> 20000 nM,>10000 nM,–,4010 ± 130 nM,–
